# Laboratory results taken from publication PMC5654968 (NPJ Systems Biology and Applications, 2017).
# Where two headings read alike, the source gives them in different places.
# Assays:
# [1] = Common metabolites in rat plasma by GC-MS/MS after polyI:C and/or maoto; assay type: in vivo
# Procedure: Distilled water and saline were administered as vehicle to rats in each control group. […] Plasma cytokine levels were measured by ELISA or multiplex immunoassay; common metabolites and lipid mediators were analyzed by GC-MS/MS and LC-MS/MS, respectively.
# 1 The concentrations of TNF-α and IL-6 in plasma samples were evaluated by
# 2 ELISA (R&D Systems, Minneapolis, MN, USA). Multiplex immunoassays
# 3 (Milliplex, Merck KGaA, Darmstadt, Germany) were performed to quantify the
# 4 concentrations of IL-1β, IL-10 and INF-γ. Assays were performed according to
# 5 the manufacturer’s protocol.
# If any outliers in the data set were determined to
# 10 be due to artifacts, they were excluded from the analysis. Data are presented as
# 11 mean ± SEM. Statistical significance of the data was determined by Welch’s
# 12 t-test with Bonferroni correction. The significance level in each statistical
# 13 analysis was set at P<0.05.
# 14 Analysis of metabolites by GC-MS/MS
# 15 Plasma samples obtained at 1, 2, 6 and 20 h after treatment were used for
# 16 analysis. To extract low molecular weight metabolites for GC-MS/MS analysis, […]
# [2] = Plasma PK of major maoto compounds by LC-MS/MS after oral administration of maoto; assay type: in vivo, rat
# Procedure: 1 (7:00-19:00). Rats were maintained and used for the experiments in accordance
# 2 with the Guidelines for the Care and Use of Laboratory Animals of Tsumura &
# 3 CO. All experimental procedures were carried out upon approval from the
# 4 Laboratory Animal Committee of Tsumura & CO.
# 8 administered to 16-h fasted rats (n=3). […]
# 14 and 4 g/10mL/kg) were determined by LC-MS/MS. Based on a literature search,
# 16 amygdalin, prunasin, scopoletin, l-ephedrine, d-pseudoephedrine,
# 1 Plasma PK data were analyzed by noncompartmental modeling using
# 2 Phoenix WinNonlin (version 6.3, Certara L.P., St. Louis, MO, USA) to determine
# 3 various PK constants including Cmax, tmax, t1/2, and AUC0–last. The t1/2 was divided
# 4 by loge2/ke, where ke is the rate constant of terminal elimination (at least three
# 5 data points on the descending linear limb). […]
# [3] = PM/P (polyI:C+maoto vs polyI:C), 1h
# [4] = PM/P (polyI:C+maoto vs polyI:C), 2h
# [5] = PM/P (polyI:C+maoto vs polyI:C), 6h
# [6] = PM/P (polyI:C+maoto vs polyI:C), 20h
# [7] = Sprague-Dawley, rat, plasma, po, 1 g/kg
# [8] = Sprague-Dawley, rat, plasma, po, 1 g/kg, read-out: Cmax
# [9] = Sprague-Dawley, rat, plasma, po, 1 g/kg, read-out: Tmax
# [10] = Sprague-Dawley, rat, plasma, po, 2 g/kg
# [11] = Sprague-Dawley, rat, plasma, po, 2 g/kg, read-out: Cmax
# [12] = Sprague-Dawley, rat, plasma, po, 4 g/kg
# [13] = Sprague-Dawley, rat, plasma, po, 4 g/kg, read-out: Cmax
# [14] = Sprague-Dawley, rat, plasma, po, 4 g/kg, read-out: Tmax
# [15] = Sprague-Dawley, rat, plasma, po, 2 g/kg, read-out: Tmax
SMILES,"log2FC of plasma level ([1]; M/C (maoto vs control), 1h)","log2FC of plasma level ([1]; M/C (maoto vs control), 2h)","log2FC of plasma level ([1]; M/C (maoto vs control), 6h)","log2FC of plasma level ([1]; M/C (maoto vs control), 20h)","log2FC of plasma level ([1]; P/C (polyI:C vs control), 1h)","log2FC of plasma level ([1]; P/C (polyI:C vs control), 2h)","log2FC of plasma level ([1]; P/C (polyI:C vs control), 6h)","log2FC of plasma level ([1]; P/C (polyI:C vs control), 20h)","log2FC of plasma level [1, 3]","AUC(0-t) [2, 7] [ng·h/mL]","Cmax [2, 8] [ng/mL]","Tmax [2, 9] [min]","AUC(0-t) [2, 10] [ng·h/mL]","Cmax [2, 11] [ng/mL]","AUC(0-t) [2, 12] [ng·h/mL]","Cmax [2, 13] [ng/mL]","Tmax [2, 14] [min]","half-life [2, 10] [min]","Tmax [2, 15] [min]","half-life [2, 12] [min]",further results
NCC(=O)O [Glycine],-0.06,-0.10,-0.14,-0.06,-0.03,-0.01,-0.02,-0.30,-0.12,,,,,,,,,,,,"log2FC of plasma level [1, 4]: -0.42; log2FC of plasma level [1, 5]: -0.02; log2FC of plasma level [1, 6]: 0.0873"
CC1(C)[C@@H](O)CC[C@]2(C)[C@H]3C(=O)C=C4[C@@H]5C[C@@](C)(C(=O)O)CC[C@]5(C)CC[C@@]4(C)[C@]3(C)CC[C@@H]12 [Glycyrrhetinic acid],,,,,,,,,,2240,234,480,4510,373,3950,301,480,,,,"Tmax ([2]; rat plasma, oral maoto 2 g/kg): 600 min"
O=C(O)Cc1cc(O)ccc1O [Homogentisic acid],0.60,-0.05,0.23,0.79,-0.05,0.24,0.10,0.75,0.68,,,,,,,,,,,,"log2FC of plasma level [1, 4]: -0.76; log2FC of plasma level [1, 5]: -0.18; log2FC of plasma level [1, 6]: 0.0612"
O=C(/C=C/c1ccc(O)cc1)c1ccc(O)cc1O [Isoliquiritigenin],,,,,,,,,,19.8,10.4,15,31,10.1,58.9,7.59,15,666,15,217,"t1/2 ([2]; rat plasma, oral maoto 1 g/kg): 3.42 h"
O=C(/C=C/c1ccc(O[C@@H]2O[C@H](CO)[C@@H](O)[C@H](O)[C@H]2O)cc1)c1ccc(O)cc1O [Isoliquiritin],,,,,,,,,,2.09,1.6,15,6.03,3.6,12.6,8.71,15,,60,188,"half-life [2, 7]: 138 min"
O=C1C[C@@H](c2ccc(O)cc2)Oc2cc(O)ccc21 [Liquiritigenin],,,,,,,,,,,,,,,,,,,,,"AUClast ([2]; rat plasma, oral maoto 1 g/kg): 17.4 ng·h/mL; Cmax ([2]; rat plasma, oral maoto 1 g/kg): 18.0 ng/mL; Tmax ([2]; rat plasma, oral maoto 1 g/kg): 15 min; AUClast ([2]; rat plasma, oral maoto 2 g/kg): 35.0 ng·h/mL; Cmax ([2]; rat plasma, oral maoto 2 g/kg): 15.1 ng/mL; Tmax ([2]; rat plasma, oral maoto 2 g/kg): 60 min; AUClast ([2]; rat plasma, oral maoto 4 g/kg): 84.4 ng·h/mL; Cmax ([2]; rat plasma, oral maoto 4 g/kg): 16.1 ng/mL; Tmax ([2]; rat plasma, oral maoto 4 g/kg): 15 min"
O=C1C[C@@H](c2ccc(O[C@@H]3O[C@H](CO)[C@@H](O)[C@H](O)[C@H]3O)cc2)Oc2cc(O)ccc21 [Liquiritin],,,,,,,,,,8.9,3.04,15,22.4,7.23,61.4,71.7,15,134,60,260,"half-life [2, 7]: 117 min"
Oc1cc(O)c2c(c1)O[C@H](c1ccc(O)c(O)c1)[C@H](O)[C@H]2c1c(O)cc(O)c2c1O[C@H](c1ccc(O)c(O)c1)[C@H](O)C2 [Procyanidin B2],,,,,,,,,,,,,0.172,0.687,2.06,4.64,15,,60,,"AUClast ([2]; rat plasma, oral maoto 1 g/kg): BQL; Cmax ([2]; rat plasma, oral maoto 1 g/kg): BQL"
Oc1cc(O)c2c(c1)O[C@H](c1ccc(O)c(O)c1)[C@H](O)[C@H]2c1c(O)cc(O)c2c1O[C@H](c1ccc(O)c(O)c1)[C@H](O)[C@H]2c1c(O)cc(O)c2c1O[C@H](c1ccc(O)c(O)c1)[C@H](O)C2 [Procyanidin C1],,,,,,,,,,,,,,,1.69,3.9,15,,,,"detection in rat plasma by targeted LC-MS/MS ([2]; oral maoto 2 g/kg): not detected; AUClast ([2]; rat plasma, oral maoto 1 g/kg): BQL; Cmax ([2]; rat plasma, oral maoto 1 g/kg): BQL; AUClast ([2]; rat plasma, oral maoto 2 g/kg): BQL; Cmax ([2]; rat plasma, oral maoto 2 g/kg): BQL"
N#C[C@H](O[C@@H]1O[C@H](CO)[C@@H](O)[C@H](O)[C@H]1O)c1ccccc1 [Prunasin],,,,,,,,,,5520,2020,30,11900,2240,32000,3250,120,147,30,193,"half-life [2, 7]: 53.5 min"
O=C[C@H](O)[C@H](O)[C@H](O)CO [Ribose],0.41,0.05,-0.22,0.16,1.05,0.63,-0.22,-0.34,-1.38,,,,,,,,,,,,"log2FC of plasma level [1, 4]: -0.72; log2FC of plasma level [1, 5]: -0.21; log2FC of plasma level [1, 6]: 0.2160"
O=C(CO)C(O)C(O)CO (centres unmarked) [Ribulose],0.30,0.01,0.06,0.08,0.24,0.14,0.10,-0.04,-0.26,,,,,,,,,,,,"log2FC of plasma level [1, 4]: -0.26; log2FC of plasma level [1, 5]: 0.02; log2FC of plasma level [1, 6]: 0.0374"
COc1cc2ccc(=O)oc2cc1O [Scopoletin],,,,,,,,,,0.07,0.216,15,0.428,0.425,0.591,0.237,15,143,15,326,
NC(N)=O [Urea],0.05,-0.01,-0.09,-0.07,-0.01,0.02,-0.05,0.03,-0.02,,,,,,,,,,,,"log2FC of plasma level [1, 4]: -0.03; log2FC of plasma level [1, 5]: -0.13; log2FC of plasma level [1, 6]: 0.0096"
"CN[C@@H](C)[C@@H](O)c1ccccc1 [d-Pseudoephedrine, d-pseudoephedrine]",,,,,,,,,,183,136,15,559,163,1180,253,15,395,15,232,"half-life [2, 7]: 349 min"
"CN[C@@H](C)[C@H](O)c1ccccc1 [l-Ephedrine, l-ephedrine]",,,,,,,,,,730,311,15,1560,377,2850,545,15,86.4,60,251,"half-life [2, 7]: 81 min"
